According to paper PMC4915074 (Nature communications, 2013):

Tested on: VEGF
Experiment: VEGF gene expression in THP1 cells by quantitative real-time PCR
Format: cell-based, human
Conditions: 10 ng/mL (1.66 nM), 2 h, vs vehicle

With relaxin the “increase in relative expression of VEGF mRNA” value was 2.4 fold.
